Measurements from US10167262B2, “Herbicidal substituted 3-arylpyrazoles” (FMC CORPORATION, priority 2014, dated 2019).

Columns and labels:
Format in all cases: in vivo
[1] = system: barnyardgrass (Echinochloa crus-galli); experiment: Test B flooded paddy test, plant response rating 0-100; settings: Flood, 250 g ai/ha; scale 0 to 100 (0 no effect, 100 complete control); 13 to 15 days
How it was run: (§1)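 Under a constant 3 cm flood, test compounds went directly into the paddy water. Following 13 to 15 days of greenhouse growth, treated species and controls were compared by eye.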

[2] = system: sedge, umbrella (small-flower umbrella sedge, Cyperus difformis); experiment: as above; settings: Flood, 250 g ai/ha; scale 0 to 100 (0 no effect, 100 complete control); 13 to 15 days
How it was run: as §1

[3] = system: rice (Oryza sativa); experiment: as above; settings: Flood, 250 g ai/ha; scale 0 to 100 (0 no effect, 100 complete control); 13 to 15 days
How it was run: as §1

[4] = system: ducksalad (Heteranthera limosa); experiment: as above; settings: Flood, 250 g ai/ha; scale 0 to 100 (0 no effect, 100 complete control); 13 to 15 days
How it was run: as §1

[5] = system: pigweed (Amaranthus retroflexus); experiment: Test A pre-/postemergence greenhouse herbicide test, visual injury rating 0-100
How it was run: (§2)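 Visual injury versus untreated controls, scored about 10 days after treatment on a 0 to 100 scale (0 = no effect, 100 = complete control). Applications were preemergence directed soil spray plus postemergence spray at one- to two-leaf stage, 2 to 10 cm plants.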

[6] = system: wheat (Triticum aestivum); experiment: as above
How it was run: as §2

[7] = system: giant foxtail (Setaria faberii); experiment: as above
How it was run: as §2

[8] = system: velvetleaf (Abutilon theophrasti); experiment: as above
How it was run: as §2

[9] = system: morningglory (Ipomoea spp.); experiment: as above; settings: for Morningglory plant response rating (0 = no effect, 100 = complete control): 125 g ai/ha
How it was run: as §2

[10] = system: barnyardgrass (Echinochloa crus-galli); experiment: as above
How it was run: as §2

[11] = system: large (Lg) crabgrass (Digitaria sanguinalis); experiment: as above
How it was run: as §2

[12] = system: corn (Zea mays); experiment: as above
How it was run: as §2

Structure (SMILES) | Plant response rating, Barnyardgrass [1] | Plant response rating, Sedge, Umbrella [2] | Plant response rating, Rice [3] | Plant response rating, Ducksalad [4] | Plant response rating (0 to 100 scale), Pigweed ([5]; Postemergence, 125 g ai/ha) | Plant response rating (0 to 100 scale), Pigweed ([5]; Postemergence, 500 g ai/ha) | Pigweed plant response rating (0 = no effect, 100 = complete control) ([5]; Preemergence, 125 g ai/ha) | Plant response rating (0 to 100 scale), Pigweed ([5]; Preemergence, 500 g ai/ha) | Plant response rating (0 to 100 scale), Wheat ([6]; Postemergence, 125 g ai/ha) | Plant response rating (0 to 100 scale), Wheat ([6]; Postemergence, 500 g ai/ha) | Wheat plant response rating (0 = no effect, 100 = complete control) ([6]; Preemergence, 125 g ai/ha) | Plant response rating (0 to 100 scale), Wheat ([6]; Preemergence, 500 g ai/ha) | Plant response rating (0 to 100 scale), Foxtail, Giant ([7]; Postemergence, 125 g ai/ha) | Plant response rating (0 to 100 scale), Foxtail, Giant ([7]; Postemergence, 500 g ai/ha) | Foxtail, Giant plant response rating (0 = no effect, 100 = complete control) ([7]; Preemergence, 125 g ai/ha) | Plant response rating (0 to 100 scale), Foxtail, Giant ([7]; Preemergence, 500 g ai/ha) | Plant response rating (0 to 100 scale), Velvetleaf ([8]; Postemergence, 125 g ai/ha) | Plant response rating (0 to 100 scale), Velvetleaf ([8]; Postemergence, 500 g ai/ha) | Velvetleaf plant response rating (0 = no effect, 100 = complete control) ([8]; Preemergence, 125 g ai/ha) | Plant response rating (0 to 100 scale), Velvetleaf ([8]; Preemergence, 500 g ai/ha) | also measured
N#CCn1cc(C(=O)c2ccccc2)c(-c2cc(Cl)cc(Cl)c2)n1 [Compound 43] | 0 | 0 | 0 | 0 | 50 | 80 | 0 | 40 | 0 | 0 | 0 | 0 | 0 | 0 | 0 | 0 | 20 | 80 | 30 | 30 | Morningglory plant response rating (0 = no effect, 100 = complete control) ([9]; Preemergence): 0; Plant response rating (0 to 100 scale), Morningglory ([9]; Preemergence, 500 g ai/ha): 0; Plant response rating (0 to 100 scale), Barnyardgrass ([10]; Postemergence, 125 g ai/ha): 0; Plant response rating (0 to 100 scale), Barnyardgrass ([10]; Postemergence, 500 g ai/ha): 0; Barnyardgrass plant response rating (0 = no effect, 100 = complete control) ([10]; Preemergence, 125 g ai/ha): 0; Plant response rating (0 to 100 scale), Barnyardgrass ([10]; Preemergence, 500 g ai/ha): 0; Plant response rating (0 to 100 scale), Crabgrass, Large ([11]; Postemergence, 125 g ai/ha): 0; Plant response rating (0 to 100 scale), Crabgrass, Large ([11]; Postemergence, 500 g ai/ha): 0; Crabgrass, Large plant response rating (0 = no effect, 100 = complete control) ([11]; Preemergence, 125 g ai/ha): 0; Plant response rating (0 to 100 scale), Crabgrass, Large ([11]; Preemergence, 500 g ai/ha): 0; Plant response rating (0 to 100 scale), Corn ([12]; Postemergence, 125 g ai/ha): 0; Plant response rating (0 to 100 scale), Corn ([12]; Postemergence, 500 g ai/ha): 0; Corn plant response rating (0 = no effect, 100 = complete control) ([12]; Preemergence, 125 g ai/ha): 0; Plant response rating (0 to 100 scale), Corn ([12]; Preemergence, 500 g ai/ha): 0
CC(=O)Cn1cc(C(=O)c2ccccc2)c(-c2cc(Cl)cc(Cl)c2)n1 [Compound 45] | 0 | 0 | 0 | 0 | 40 | 60 | 0 | 70 | 0 | 0 | 0 | 0 | 0 | 0 | 0 | 0 | 60 | 80 | 20 | 30 | Morningglory plant response rating (0 = no effect, 100 = complete control) ([9]; Preemergence): 0; Plant response rating (0 to 100 scale), Morningglory ([9]; Preemergence, 500 g ai/ha): 0; Plant response rating (0 to 100 scale), Barnyardgrass ([10]; Postemergence, 125 g ai/ha): 0; Plant response rating (0 to 100 scale), Barnyardgrass ([10]; Postemergence, 500 g ai/ha): 0; Barnyardgrass plant response rating (0 = no effect, 100 = complete control) ([10]; Preemergence, 125 g ai/ha): 0; Plant response rating (0 to 100 scale), Barnyardgrass ([10]; Preemergence, 500 g ai/ha): 0; Plant response rating (0 to 100 scale), Crabgrass, Large ([11]; Postemergence, 125 g ai/ha): 0; Plant response rating (0 to 100 scale), Crabgrass, Large ([11]; Postemergence, 500 g ai/ha): 0; Crabgrass, Large plant response rating (0 = no effect, 100 = complete control) ([11]; Preemergence, 125 g ai/ha): 0; Plant response rating (0 to 100 scale), Crabgrass, Large ([11]; Preemergence, 500 g ai/ha): 0; Plant response rating (0 to 100 scale), Corn ([12]; Postemergence, 125 g ai/ha): 0; Plant response rating (0 to 100 scale), Corn ([12]; Postemergence, 500 g ai/ha): 0; Corn plant response rating (0 = no effect, 100 = complete control) ([12]; Preemergence, 125 g ai/ha): 0; Plant response rating (0 to 100 scale), Corn ([12]; Preemergence, 500 g ai/ha): 0
CCn1cc(C(=O)c2ccccc2)c(-c2cc(F)cc(C(F)(F)F)c2)n1 [Compound 48] | 0 | 0 | 0 | 0 | – | – | – | – | – | – | – | – | – | – | – | – | – | – | – | – | Plant response rating (0 to 100 scale), Pigweed ([5]; Postemergence, 1000 g ai/ha): 90; Plant response rating (0 to 100 scale), Pigweed ([5]; Preemergence, 1000 g ai/ha): 100; Plant response rating (0 to 100 scale), Wheat ([6]; Postemergence, 1000 g ai/ha): 0; Plant response rating (0 to 100 scale), Wheat ([6]; Preemergence, 1000 g ai/ha): 0; Plant response rating (0 to 100 scale), Foxtail, Giant ([7]; Postemergence, 1000 g ai/ha): 20; Plant response rating (0 to 100 scale), Foxtail, Giant ([7]; Preemergence, 1000 g ai/ha): 0; Plant response rating (0 to 100 scale), Velvetleaf ([8]; Postemergence, 1000 g ai/ha): 90; Plant response rating (0 to 100 scale), Velvetleaf ([8]; Preemergence, 1000 g ai/ha): 80; Plant response rating (0 to 100 scale), Morningglory ([9]; Postemergence, 1000 g ai/ha): 20; Plant response rating (0 to 100 scale), Morningglory ([9]; Preemergence, 1000 g ai/ha): 0; Plant response rating (0 to 100 scale), Barnyardgrass ([10]; Postemergence, 1000 g ai/ha): 20; Plant response rating (0 to 100 scale), Barnyardgrass ([10]; Preemergence, 1000 g ai/ha): 0; Plant response rating (0 to 100 scale), Crabgrass, Large ([11]; Postemergence, 1000 g ai/ha): 20; Plant response rating (0 to 100 scale), Crabgrass, Large ([11]; Preemergence, 1000 g ai/ha): 0; Plant response rating (0 to 100 scale), Corn ([12]; Postemergence, 1000 g ai/ha): 0; Plant response rating (0 to 100 scale), Corn ([12]; Preemergence, 1000 g ai/ha): 0
